Species on record: Rattus norvegicus
Experiment: DrugMatrix - Regimen: Daily Repeat
Format: toxicity, organism-based, Sprague-Dawley
Parameters: regimen Daily Repeat, gender Male, age 6-8 weeks
Conditions: in vivo, po, route oral GAVAGE, vehicle .5 % CMC; for ABSOLUTE BASOPHIL / ABSOLUTE EOSINOPHIL / ABSOLUTE LYMPHOCYTE / ABSOLUTE MONOCYTE / ABSOLUTE SEGMENTED NEUTROPHIL / BASOPHIL / EOSINOPHIL / ERYTHROCYTE COUNT / HEMATOCRIT / HEMOGLOBIN / LEUKOCYTE COUNT / LYMPHOCYTE / MEAN CORPUSCULAR HEMOGLOBIN / MEAN CORPUSCULAR HEMOGLOBIN CONCENTRATION / MEAN CORPUSCULAR VOLUME / MONOCYTE / NEUTROPHIL / NUCLEATED RED BLOOD CELLS / PLATELET COUNT: tissue Blood; for ALANINE AMINOTRANSFERASE / ALBUMIN / ALKALINE PHOSPHATASE / ASPARTATE AMINOTRANSFERASE / BLOOD UREA NITROGEN / CARBON DIOXIDE / CHLORIDE / CHOLESTEROL / CREATINE PHOSPHOKINASE / CREATININE / GLUCOSE / LACTATE DEHYDROGENASE / LIPASE / PHOSPHORUS / POTASSIUM / SODIUM / TOTAL BILIRUBIN / TOTAL PROTEIN / URIC ACID: tissue Plasma
[1] = 200 mg/kg, 72 h, dose level Low, time 3 day
[2] = 200 mg/kg, 120 h, dose level Low, time 5 day
[3] = 1200 mg/kg, 72 h, dose level High, time 3 day
[4] = 1200 mg/kg, 120 h, dose level High, time 5 day

COc1cc(C(=O)NC2CCCNC2)cc(OC)c1OC (configuration not stated) [TROXIPIDE]
ABSOLUTE BASOPHIL [1]: 0 CELLS/uL | ABSOLUTE EOSINOPHIL [1]: 136.33 CELLS/uL | ABSOLUTE LYMPHOCYTE [1]: 11684 CELLS/uL | ABSOLUTE MONOCYTE [1]: 203.67 CELLS/uL | ABSOLUTE SEGMENTED NEUTROPHIL [1]: 809.33 CELLS/uL | BASOPHIL [1]: 0% | EOSINOPHIL [1]: 1% | ERYTHROCYTE COUNT [1]: 5.48 x10E6/uL | HEMATOCRIT [1]: 34.2% | HEMOGLOBIN [1]: 12.97 G/DL | LEUKOCYTE COUNT [1]: 12.83 x10E3/uL | LYMPHOCYTE [1]: 91% | MEAN CORPUSCULAR HEMOGLOBIN [1]: 23.67 pg | MEAN CORPUSCULAR HEMOGLOBIN CONCENTRATION [1]: 37.9 G/DL | MEAN CORPUSCULAR VOLUME [1]: 62.43 fL | MONOCYTE [1]: 1.67% | NEUTROPHIL [1]: 6.33% | NUCLEATED RED BLOOD CELLS [1]: 0.33 /100WBC | PLATELET COUNT [1]: 1247.33 x10E3/uL | ALANINE AMINOTRANSFERASE [1]: 38.67 u/L | ALBUMIN [1]: 4.37 G/DL | ALKALINE PHOSPHATASE [1]: 413.67 u/L | ASPARTATE AMINOTRANSFERASE [1]: 80 u/L | BLOOD UREA NITROGEN [1]: 14 mg/dL | CARBON DIOXIDE [1]: 26.33 mmol/L | CHLORIDE [1]: 106 MEQ/L | CHOLESTEROL [1]: 67 mg/dL | CREATINE PHOSPHOKINASE [1]: 457.67 u/L | CREATININE [1]: 0.16 mg/dL | GLUCOSE [1]: 165 mg/dL | LACTATE DEHYDROGENASE [1]: 90.67 u/L | LIPASE [1]: 9 u/L | PHOSPHORUS [1]: 13.6 mg/dL | POTASSIUM [1]: 6.02 MEQ/L | SODIUM [1]: 146.67 MEQ/L | TOTAL BILIRUBIN [1]: 0.23 mg/dL | TOTAL PROTEIN [1]: 5.87 G/DL | URIC ACID [1]: 1.57 mg/dL | ABSOLUTE BASOPHIL [2]: 0 CELLS/uL | ABSOLUTE EOSINOPHIL [2]: 142.33 CELLS/uL | ABSOLUTE LYMPHOCYTE [2]: 13091.33 CELLS/uL | ABSOLUTE MONOCYTE [2]: 94.33 CELLS/uL | ABSOLUTE SEGMENTED NEUTROPHIL [2]: 905.33 CELLS/uL | BASOPHIL [2]: 0% | EOSINOPHIL [2]: 1% | ERYTHROCYTE COUNT [2]: 5.5 x10E6/uL | HEMATOCRIT [2]: 35.17% | HEMOGLOBIN [2]: 13.37 G/DL | LEUKOCYTE COUNT [2]: 14.23 x10E3/uL | LYMPHOCYTE [2]: 92% | MEAN CORPUSCULAR HEMOGLOBIN [2]: 24.33 pg | MEAN CORPUSCULAR HEMOGLOBIN CONCENTRATION [2]: 38.03 G/DL | MEAN CORPUSCULAR VOLUME [2]: 63.97 fL | MONOCYTE [2]: 0.67% | NEUTROPHIL [2]: 6.33% | NUCLEATED RED BLOOD CELLS [2]: 0 /100WBC | PLATELET COUNT [2]: 1300.67 x10E3/uL | ALANINE AMINOTRANSFERASE [2]: 40.33 u/L | ALBUMIN [2]: 4.33 G/DL | ALKALINE PHOSPHATASE [2]: 383 u/L | ASPARTATE AMINOTRANSFERASE [2]: 84.33 u/L | BLOOD UREA NITROGEN [2]: 16.67 mg/dL | CARBON DIOXIDE [2]: 24.67 mmol/L | CHLORIDE [2]: 109 MEQ/L | CHOLESTEROL [2]: 69 mg/dL | CREATINE PHOSPHOKINASE [2]: 241.67 u/L | CREATININE [2]: 0.18 mg/dL | GLUCOSE [2]: 177.67 mg/dL | LACTATE DEHYDROGENASE [2]: 230 u/L | LIPASE [2]: 9 u/L | PHOSPHORUS [2]: 14 mg/dL | POTASSIUM [2]: 5.49 MEQ/L | SODIUM [2]: 147.33 MEQ/L | TOTAL BILIRUBIN [2]: 0.23 mg/dL | TOTAL PROTEIN [2]: 6.57 G/DL | URIC ACID [2]: 1.8 mg/dL | ABSOLUTE BASOPHIL [3]: 0 CELLS/uL | ABSOLUTE EOSINOPHIL [3]: 0 CELLS/uL | ABSOLUTE LYMPHOCYTE [3]: 8315.67 CELLS/uL | ABSOLUTE MONOCYTE [3]: 238.67 CELLS/uL | ABSOLUTE SEGMENTED NEUTROPHIL [3]: 579 CELLS/uL | BASOPHIL [3]: 0% | EOSINOPHIL [3]: 0% | ERYTHROCYTE COUNT [3]: 5.66 x10E6/uL | HEMATOCRIT [3]: 34.93% | HEMOGLOBIN [3]: 13.13 G/DL | LEUKOCYTE COUNT [3]: 9.13 x10E3/uL | LYMPHOCYTE [3]: 91% | MEAN CORPUSCULAR HEMOGLOBIN [3]: 23.23 pg | MEAN CORPUSCULAR HEMOGLOBIN CONCENTRATION [3]: 37.6 G/DL | MEAN CORPUSCULAR VOLUME [3]: 61.73 fL | MONOCYTE [3]: 2.33% | NEUTROPHIL [3]: 6.67% | NUCLEATED RED BLOOD CELLS [3]: 0 /100WBC | PLATELET COUNT [3]: 1475 x10E3/uL | ALANINE AMINOTRANSFERASE [3]: 56 u/L | ALBUMIN [3]: 4.5 G/DL | ALKALINE PHOSPHATASE [3]: 344 u/L | ASPARTATE AMINOTRANSFERASE [3]: 88 u/L | BLOOD UREA NITROGEN [3]: 12.67 mg/dL | CARBON DIOXIDE [3]: 27.67 mmol/L | CHLORIDE [3]: 106.33 MEQ/L | CHOLESTEROL [3]: 80.33 mg/dL | CREATINE PHOSPHOKINASE [3]: 209.33 u/L | CREATININE [3]: 0.21 mg/dL | GLUCOSE [3]: 138.33 mg/dL | LACTATE DEHYDROGENASE [3]: 178 u/L | LIPASE [3]: 8.67 u/L | PHOSPHORUS [3]: 11.63 mg/dL | POTASSIUM [3]: 6.42 MEQ/L | SODIUM [3]: 150.7 MEQ/L | TOTAL BILIRUBIN [3]: 0.2 mg/dL | TOTAL PROTEIN [3]: 6.4 G/DL | URIC ACID [3]: 1.2 mg/dL | ABSOLUTE BASOPHIL [4]: 0 CELLS/uL | ABSOLUTE EOSINOPHIL [4]: 55.33 CELLS/uL | ABSOLUTE LYMPHOCYTE [4]: 13790.67 CELLS/uL | ABSOLUTE MONOCYTE [4]: 0 CELLS/uL | ABSOLUTE SEGMENTED NEUTROPHIL [4]: 1154 CELLS/uL | BASOPHIL [4]: 0% | EOSINOPHIL [4]: 0.33% | ERYTHROCYTE COUNT [4]: 5.99 x10E6/uL | HEMATOCRIT [4]: 37.5% | HEMOGLOBIN [4]: 13.97 G/DL | LEUKOCYTE COUNT [4]: 15 x10E3/uL | LYMPHOCYTE [4]: 92% | MEAN CORPUSCULAR HEMOGLOBIN [4]: 23.33 pg | MEAN CORPUSCULAR HEMOGLOBIN CONCENTRATION [4]: 37.23 G/DL | MEAN CORPUSCULAR VOLUME [4]: 62.67 fL | MONOCYTE [4]: 0% | NEUTROPHIL [4]: 7.67% | NUCLEATED RED BLOOD CELLS [4]: 0 /100WBC | PLATELET COUNT [4]: 1467.33 x10E3/uL | ALANINE AMINOTRANSFERASE [4]: 59.33 u/L | ALBUMIN [4]: 4.1 G/DL | ALKALINE PHOSPHATASE [4]: 355.33 u/L | ASPARTATE AMINOTRANSFERASE [4]: 81.33 u/L | BLOOD UREA NITROGEN [4]: 15.33 mg/dL | CARBON DIOXIDE [4]: 24.33 mmol/L | CHLORIDE [4]: 106.33 MEQ/L | CHOLESTEROL [4]: 65.33 mg/dL | CREATINE PHOSPHOKINASE [4]: 150 u/L | CREATININE [4]: 0.2 mg/dL | GLUCOSE [4]: 176 mg/dL | LACTATE DEHYDROGENASE [4]: 88.67 u/L | LIPASE [4]: 8.33 u/L | PHOSPHORUS [4]: 13.83 mg/dL | POTASSIUM [4]: 6.2 MEQ/L | SODIUM [4]: 146.57 MEQ/L | TOTAL BILIRUBIN [4]: 0.17 mg/dL | TOTAL PROTEIN [4]: 6.17 G/DL | URIC ACID [4]: 2.43 mg/dL

Reference: ChEMBL document CHEMBL3885881, “DrugMatrix”
